From patent US9120749B2, “Quinoline derivatives and MELK inhibitors containing the same” (ONCOTHERAPY SCIENCE, INC., priority 2010, dated 2015) come the findings set out here.

The test system of one assay is HT-1197 cells. The experiment in a line: Cell-based assay: anti-proliferative activity, Cell Counting Kit-8, 72 hours (HT-1197, negative control without MELK expression). To be noted: Homo sapiens, HT1197, 72 h, HT1197 cells (negative control, no MELK expression), 72 hours. A digest of the protocol: (§1)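 Anti-MELK western blot on crude lysates → MELK status per line. Cells plated 96-well, compound exposure, CCK-8 readout at 72 h; IC50 calculated.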

The next assay concerns the target MELK (Homo sapiens, UniProt Q14680). Kind of assay: Kinase assay: MELK activity, phosphorylation of FITC-labeled histone H3 peptide measured by IMAP fluorescence polarization. It is filed as biochemical. Put shortly: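 Compounds, serially diluted from 12.5 mM DMSO stocks to 1% final DMSO, were tested with FITC-labeled histone H3 peptide as substrate. The reaction was stopped with progressive binding solution. Fluorescence polarization was read after 0.5 hour at room temperature.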

The subject of another assay is DU4475 cells. Kind of assay: Cell-based assay: anti-proliferative activity, Cell Counting Kit-8, 72 hours (DU4475). Conditions: Homo sapiens, DU-4475, 72 h.
Another assay concerns 22Rv1 cells. The experiment in a line: Cell-based assay: anti-proliferative activity, Cell Counting Kit-8, 72 hours (22Rv1). Conditions: Homo sapiens, 22Rv1, 72 h.
The test system of another assay is T47D cells. Kind of assay: Cell-based assay: anti-proliferative activity, Cell Counting Kit-8, 72 hours (T47D). Conditions: Homo sapiens, T47D, 72 h. A digest of the protocol:
as §1

In another assay the test system is A549 cells. The experiment in a line: Cell-based assay: anti-proliferative activity, Cell Counting Kit-8, 72 hours (A549). To be noted: Homo sapiens, A549, 72 h, 72 hours. Put shortly: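 Cell Counting Kit-8 read-out of A549 growth after 72 hours of inhibitor exposure, cells plated in 96-well format. Values reported as IC50.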
Setting [1] is: read-out: IC50 (μM) (kinase assay).
[2] abbreviates: MELK kinase assay, IMAP fluorescence polarization, 50 micro-M ATP, read-out: IC50 (μM) (kinase assay).

Structures are written as SMILES. Where a name gives a salt, the structure may show the parent alone. Read-outs that look alike come from different tables or passages of the source.

Sequence of MELK (Q14680 whole entry, looked up): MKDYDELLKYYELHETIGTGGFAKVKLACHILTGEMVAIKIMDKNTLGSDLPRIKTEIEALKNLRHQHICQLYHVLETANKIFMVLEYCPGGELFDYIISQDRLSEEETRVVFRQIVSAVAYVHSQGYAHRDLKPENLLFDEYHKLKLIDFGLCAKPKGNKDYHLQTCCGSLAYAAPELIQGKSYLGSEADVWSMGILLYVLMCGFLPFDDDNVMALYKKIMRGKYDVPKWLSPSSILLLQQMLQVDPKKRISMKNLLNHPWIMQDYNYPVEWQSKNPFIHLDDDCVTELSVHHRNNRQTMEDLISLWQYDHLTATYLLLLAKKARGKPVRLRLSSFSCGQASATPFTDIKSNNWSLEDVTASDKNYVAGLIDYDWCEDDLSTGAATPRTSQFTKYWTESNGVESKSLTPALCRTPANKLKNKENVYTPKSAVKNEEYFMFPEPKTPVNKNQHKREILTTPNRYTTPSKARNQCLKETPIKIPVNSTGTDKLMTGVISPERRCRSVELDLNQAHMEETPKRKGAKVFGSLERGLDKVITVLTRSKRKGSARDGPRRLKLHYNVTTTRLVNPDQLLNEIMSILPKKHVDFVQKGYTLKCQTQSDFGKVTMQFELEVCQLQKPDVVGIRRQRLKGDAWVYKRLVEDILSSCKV

For the molecule `O=C(c1cnc2ccc(-c3cc(F)c(O)c(F)c3)cc2c1Nc1ccc(CN2CCCC2)nc1)C1CC1` [Example 795, cyclopropyl(6-(3,5-difluoro-4-hydroxyphenyl)-4-(6-(pyrrolidin-1-ylmethyl)pyridin-3-ylamino)quinolin-3-yl)methanone], the IC50 stood at 3.5 µM in the assay with HT-1197 cells; 0.035 µM at MELK (setting [1]); 0.31 µM in the assay on DU4475 cells; 0.83 µM in the assay with 22Rv1 cells; 0.51 µM in the assay on T47D cells; 0.34 µM with A549 cells.

`CN(C)CCc1cccc(Nc2c(C(=O)C3CC3)cnc3ccc(-c4cc(F)c(O)c(F)c4)cc23)c1` [Example 796, cyclopropyl(6-(3,5-difluoro-4-hydroxyphenyl)-4-(3-(2-(dimethylamino)ethyl)phenylamino)quinolin-3-yl)methanone]: the IC50 in the assay on HT-1197 cells amounted to 0.67 µM; on MELK (setting [1]) it was 0.026 µM; with DU4475 cells, 0.14 µM; in the assay with 22Rv1 cells it was 0.52 µM; with T47D cells, 0.43 µM; with A549 cells, 0.14 µM.

As to `O=C(c1cnc2ccc(-c3cc(F)c(O)c(Cl)c3)cc2c1Nc1cccc(CCN2CCCC2)c1)C1CC1` [Example 799, {6-(3-Chloro-5-fluoro-4-hydroxyphenyl)-4-[3-(2-(pyrrolidin-1-yl)ethyl)phenylamino]quinolin-3-yl}(cyclopropyl)methanone], the IC50 turned out to be 10 µM in the assay with HT-1197 cells; 0.0047 µM at MELK (setting [1]); 0.079 µM with DU4475 cells; 0.25 µM with 22Rv1 cells; 0.52 µM in the assay with T47D cells; 0.081 µM in the assay with A549 cells.

`CNC1CCN(c2ccc(Nc3c(C(=O)C4CC4)cnc4ccc(-c5cc(Cl)c(O)c(Cl)c5)cc34)cn2)C1` (stereo not drawn) [Example 804, cyclopropyl(6-(3,5-dichloro-4-hydroxyphenyl)-4-((6-(3-(methylamino)pyrrolidin-1-yl)pyridin-3-yl)amino)quinolin-3-yl)methanone trihydrochloride]: the half-inhibitory concentration (IC50) is 1.4 µM in the assay on HT-1197 cells; 0.002 µM on MELK (setting [1]); 0.042 µM with DU4475 cells; 0.1 µM in the assay on 22Rv1 cells; 0.088 µM in the assay with T47D cells; 0.17 µM in the assay with A549 cells.

With `CC(=O)c1cnc2ccc(-c3cc(F)c(O)c(Cl)c3)cc2c1Nc1cnn(C2CCN(C)CC2)c1` [Example 805, 1-(6-(3-chloro-5-fluoro-4-hydroxyphenyl)-4-(1-(1-methylpiperidin-4-yl)-1H-pyrazol-4-ylamino)quinolin-3-yl)ethanone hydrochloride], the IC50 in the assay with HT-1197 cells came to 2.4 µM; on MELK (setting [1]), 0.0028 µM; in the assay on DU4475 cells, 0.11 µM; with 22Rv1 cells it was 0.32 µM; in the assay with T47D cells, 0.17 µM; with A549 cells it was 0.34 µM.

As to `CNC1CCCN(c2ccc(Nc3c(C(C)=O)cnc4ccc(-c5cc(Cl)c(O)c(Cl)c5)cc34)cn2)C1` (stereo not drawn) [Example 806, 1-(6-(3,5-dichloro-4-hydroxyphenyl)-4-((6-(3-(methylamino)piperidin-1-yl)pyridin-3-yl)amino)quinolin-3-yl)ethanone trihydrochloride], the IC50 in the assay with HT-1197 cells was determined as 0.33 µM; against MELK, 0.0012 µM; in the assay on DU4475 cells it was 0.032 µM; in the assay on 22Rv1 cells, 0.039 µM; in the assay on T47D cells, 0.027 µM; in the assay on A549 cells, 0.054 µM.

In the case of `CNC1CCCN(c2ccc(Nc3c(C(=O)C4CC4)cnc4ccc(-c5cc(Cl)c(O)c(Cl)c5)cc34)cn2)C1` (stereo not drawn) [Example 807, cyclopropyl(6-(3,5-dichloro-4-hydroxyphenyl)-4-((6-(3-(methylamino)piperidin-1-yl)pyridin-3-ylamino)quinolin-3-yl)methanone trihydrochloride], the IC50 in the assay on HT-1197 cells was 1.1 µM; at MELK (setting [1]) it was 0.0015 µM; in the assay on DU4475 cells, 0.032 µM; with 22Rv1 cells it was 0.055 µM; in the assay with T47D cells, 0.058 µM; with A549 cells, 0.056 µM.

Turning to `CC(=O)c1cnc2ccc(-c3cc(F)c(O)c(Cl)c3)cc2c1N[C@H]1CC[C@H](CN2CCC[C@@H]2CO)CC1` [Example 808, 1-(6-(3-chloro-5-fluoro-4-hydroxyphenyl)-4-(1R,4R)-4-(((R)-2-(hydroxymethyl)pyrrolidin-1-yl)methyl)cyclohexylamino)quinolin-3-yl)ethanone hydrochloride], the half-inhibitory concentration (IC50) came to 8.2 µM in the assay on HT-1197 cells; 0.0065 µM at MELK (setting [1]); 0.11 µM with DU4475 cells; 0.22 µM in the assay on 22Rv1 cells; 0.12 µM in the assay on T47D cells; 0.22 µM in the assay with A549 cells.

`COc1cc(-c2ccc3ncc(C(C)=O)c(N[C@H]4CC[C@H](CN5CCCC(N)C5)CC4)c3c2)cc(Cl)c1O` (stereo partly drawn) [Example 809, 1-(4-(1R,4R)-4-((3-aminopiperidin-1-yl)methyl)cyclohexylamino)-6-(3-chloro-4-hydroxy-5-methoxyphenyl)quinolin-3-yl)ethanone hydrochloride]: the 50% inhibitory concentration (IC50) in the assay with HT-1197 cells turned out to be 10 µM; on MELK (setting [1]), 0.016 µM; in the assay with DU4475 cells, 10 µM; in the assay on 22Rv1 cells it was 2.6 µM; with T47D cells it was 4.6 µM; in the assay with A549 cells, 3.1 µM.

`CC(=O)c1cnc2ccc(-c3cc(Cl)c(O)c(Cl)c3)cc2c1N[C@H]1CC[C@H](CN2CCCC(N)C2)CC1` (stereo partly drawn) [Example 810]: the half-maximal inhibitory concentration (IC50) in the assay with HT-1197 cells was 2.3 µM; on MELK (setting [1]) it was 0.0018 µM; in the assay with DU4475 cells it was 0.044 µM; with 22Rv1 cells, 0.056 µM; with T47D cells, 0.034 µM; with A549 cells it was 0.12 µM.

Consider `COc1cc(-c2ccc3ncc(C(C)=O)c(N[C@H]4CC[C@H](CN5CCC[C@@H]5CO)CC4)c3c2)cc(Cl)c1O` [Example 811], for which the half-maximal inhibitory concentration (IC50) in the assay with HT-1197 cells is 5.4 µM; on MELK (setting [1]), 0.0027 µM; in the assay on DU4475 cells it was 0.38 µM; in the assay on 22Rv1 cells it was 0.45 µM; in the assay with T47D cells it was 0.49 µM; with A549 cells it was 0.28 µM.

Take `CC(=O)c1cnc2ccc(-c3cc(F)c(O)c(Cl)c3)cc2c1Nc1cnn(C2CCN(C)C2)c1` (stereo not drawn) [Example 813, 1-(6-(3-chloro-5-fluoro-4-hydroxyphenyl)-4-((1-(1-methylpyrrolidin-3-yl)-1H-pyrazol-4-yl)amino)quinolin-3-yl)ethanone dihydrochloride]: the IC50 in the assay with HT-1197 cells is 0.75 µM; at MELK (setting [2]), 0.0021 µM; in the assay with DU4475 cells, 0.054 µM; in the assay with 22Rv1 cells, 0.11 µM; in the assay with T47D cells, 0.07 µM; in the assay on A549 cells, 0.25 µM.

As for `CC(=O)c1cnc2ccc(-c3cc(Cl)c(O)c(Cl)c3)cc2c1Nc1cnn(C2CCN(C)C2)c1` (stereo not drawn) [Example 814, 1-(6-(3,5-dichloro-4-hydroxyphenyl)-4-((1-(1-methylpyrrolidin-3-yl)-1H-pyrazol-4-yl)amino)quinolin-3-yl)ethanone dihydrochloride], the IC50 in the assay on HT-1197 cells was 0.78 µM; at MELK (setting [2]), 0.0009 µM; in the assay with DU4475 cells, 0.057 µM; with 22Rv1 cells, 0.13 µM; in the assay on T47D cells it was 0.14 µM; in the assay with A549 cells it was 0.29 µM.

Consider `CNC1CCCN(c2ccc(Nc3c(C(C)=O)cnc4ccc(-c5cc(F)c(O)c(Cl)c5)cc34)cn2)C1` (stereo not drawn) [Example 815, 1-(6-(3-chloro-5-fluoro-4-hydroxyphenyl)-4-((6-(3-(methylamino)piperidin-1-yl)pyridin-3-yl)amino)quinolin-3-yl)ethanone trihydrochloride], for which the IC50 in the assay with HT-1197 cells turned out to be 0.052 µM; on MELK (setting [2]) it was 0.0018 µM; in the assay on DU4475 cells, 0.041 µM; in the assay on 22Rv1 cells, 0.034 µM; in the assay with T47D cells, 0.016 µM; in the assay with A549 cells, 0.041 µM.
